Source: ChEMBL document CHEMBL1122736, “Replacement of the peptide-backbone amides connecting Tyr-Gly and Gly-Gly in leucine-enkephalin with ketomethylene groups: synthesis and biological activity” (J Med Chem, 1984)

Columns and labels:
Mus musculus [1] = test: Analgesic activity in mice by tail-flick test after intracerebroventricular administration at a dose of 12.2 ug/mouse after time duration of 2 minutes; no of mice survived / total no of mice tested-12; type: functional
Mus musculus [2] = test: Analgesic activity in mice by tail-flick test after intracerebroventricular administration at a dose of 24.3 ug/mouse after time duration of 2 minutes; no of mice survived / total no of mice tested-12; type: functional
Mus musculus [3] = test: Analgesic activity in mice by tail-flick test after intracerebroventricular administration at a dose of 40 ug/mouse after time duration of 2 minutes; no of mice survived / total no of mice tested-2; type: functional
Mus musculus [4] = test: Analgesic activity in mice by tail-flick test after intracerebroventricular administration at a dose of 40 ug/mouse after time duration of 4 minutes; no of mice survived / total no of mice tested-3; type: functional
Mus musculus [5] = test: Analgesic activity in mice by tail-flick test after intracerebroventricular administration at a dose of 40 ug/mouse after time duration of 8 minutes; no of mice survived / total no of mice tested-3; type: functional
Mus musculus [6] = test: Analgesic activity in mice by tail-flick test after intracerebroventricular administration at a dose of 48 ug/mouse after time duration of 2 minutes; no of mice survived / total no of mice tested-2; type: functional
Mus musculus [7] = test: Analgesic activity in mice by tail-flick test after intracerebroventricular administration at a dose of 48 ug/mouse after time duration of 4 minutes; no of mice survived / total no of mice tested-3; type: functional
Mus musculus [8] = test: Analgesic activity in mice by tail-flick test after intracerebroventricular administration at a dose of 48 ug/mouse after time duration of 8 minutes; no of mice survived / total no of mice tested-3; type: functional
Mus musculus [9] = test: Analgesic activity in mice by tail-flick test after intracerebroventricular administration at a dose of 60 ug/mouse after time duration of 2 minutes; no of mice survived / total no of mice tested-2; type: functional
Mus musculus [10] = test: Analgesic activity in mice by tail-flick test after intracerebroventricular administration at a dose of 60 ug/mouse after time duration of 4 minutes; no of mice survived / total no of mice tested-3; type: functional
Mus musculus [11] = test: Analgesic activity in mice by tail-flick test after intracerebroventricular administration at a dose of 60 ug/mouse after time duration of 8 minutes; no of mice survived / total no of mice tested-3; type: functional
[12] = target: Opioid receptor (Rattus norvegicus); test: Concentration required to inhibit the specific binding of tritiated ligand [3H]DADL to opiate receptor by 50%
[13] = target: Opioid receptor (Rattus norvegicus); test: Concentration required to inhibit the specific binding of tritiated ligand [3H]naloxone to opiate receptor by 50%
Mus musculus [14] = test: Analgesic activity in mice by tail-flick test after intracerebroventricular administration at a dose of 240 ug/mouse after time duration of 2 minutes; no of mice survived / total no of mice tested-6; type: functional

Row | Structure (SMILES) | Analgesic response (Mus musculus [1]) | Analgesic response (Mus musculus [2]) | Analgesic response (Mus musculus [3]) | Analgesic response (Mus musculus [4]) | Analgesic response (Mus musculus [5]) | Analgesic response (Mus musculus [6]) | Analgesic response (Mus musculus [7]) | Analgesic response (Mus musculus [8]) | Analgesic response (Mus musculus [9]) | Analgesic response (Mus musculus [10]) | Analgesic response (Mus musculus [11]) | IC50 [12] [µM] | IC50 [13] [µM] | Analgesic response (Mus musculus [14])
1 | CC(C)CC(NC(=O)C(Cc1ccccc1)NC(=O)CCC(=O)CCC(=O)C(N)Cc1ccc(O)cc1)C(=O)O (centres undefined) | 2 | 6 | 1 | 1 | 0 | 1 | 1 | 0 | 1 | 1 | 0 | 33 | 180 | 
2 | CC(C)C[C@@H](NC(=O)[C@H](Cc1ccccc1)NC(=O)CNC(=O)[C@@H](C)NC(=O)[C@@H](N)Cc1ccc(O)cc1)C(=O)O [DADLE] |  |  |  |  |  |  |  |  |  |  |  |  |  | 4
